Results as given in patent US5216011A (priority 1989, dated 1993).
Where two headings read alike, the source gives them in different places.

Columns and labels:
[1] = Stability of mitomycin C (5 mg/mL) in polyethylene glycols; format: physicochemical
[2] = Solution stability of mitomycin C in non-aqueous solvents (Table V); format: physicochemical
From the text: ^a All solutions on test in amber vials and nitrogen purged.
^b The pH of these vehicles was adjusted to 7.0 with citric acid.
^c Dried over molecular sieve.

[3] = From the text: The effect of pretreatment of propylene glycol with sodium bicarbonate and carbon (Darco G-60) was investigated.
[4] = Pseudo first-order rate constants for degradation of mitomycin C in neat propylene glycol; format: physicochemical
Protocol: ^a Data were taken from Table VI. m:month.
^b Predicted from 40° C. data.

[5] = neutral pH, unbuffered solution, Ref. 6; cited from earlier work
[6] = cited from earlier work; for stable for: 20-40 mcg/mL, room temperature; for degradation product: aqueous
[7] = Predicted stability of mitomycin C at different temperatures (aqueous degradation kinetics)
[8] = Apparent pH of propylene glycol before and after sodium bicarbonate treatment; format: physicochemical; details: after 1:10 dilution with water
Protocol: Into a 50 mL Erlenmeyer flask containing 25 mL of neat propylene glycol was added 25 mg sodium bicarbonate. The mixture was stirred for 10 minutes. After standing for 30 minutes, the mixture was then filtered through a Millex-SR filter (Millipore Corp., P/N#SLSR025NS) to remove undissolved sodium bicarbonate. Apparent pH of propylene glycol before and after the treatment (after 1:10 dilution with water) was measured and were 6.5 and 8.4, respectively.

For `CO[C@@]12[C@H](COC(N)=O)C3=C(C(=O)C(C)=C(N)C3=O)N1C[C@@H]1N[C@@H]12` [mitomycin C], the Stability ([1]; PEG 200, 300 and 400) was “poor and variable stability”, the “Effect of purging with nitrogen on stability” value ([1]; PEG 400) was “improved stability” and the “Effect of pH adjustment to 6.2 on stability” value ([1]; PEG 400, sodium glycodeoxycholate) was “unsuccessful”. For the same compound, the “Effect of propyl gallate on stability” value ([1]; PEG, nitrogen purged solutions) was “not to improve stability”, the Stability ([2]; 2-pyrrolidone (2-Pyr)) was “Slightly lower stability” and the Stability ([2]; DMA, NMP and PG) was “Excellent stability”. The Stability ([2]; ethanol) was “surprisingly poor”, the “Effect of addition of 2% water on stability” value ([2]; propylene glycol, vs neat solvent) was “appeared to increase stability” and the “Effect of air vs. nitrogen on stability” value ([3]; PG and PG/water, 25° C.) was “more stable in the presence of nitrogen”. The Stability ([3]; all PG formulations, 25° C. and 4° C.) was “Excellent stability”, the Stability ([3]; glycerin) was “poor stability” and the “Effect of 5% and 10% water on stability” value ([3]; propylene glycol) was “do not adversely affect, and may actually improve, mitomycin C stability”. For the same compound, the “Effect of pretreatment of propylene glycol with carbon (Darco G-60) on stability” value ([3]; propylene glycol) was “did not significantly improve mitomycin C stability”, the “Effect of pretreatment of propylene glycol with sodium bicarbonate on stability” value ([3]; propylene glycol) was “significantly improved” and the “Effect of three antioxidants on stability” value ([3]; propylene glycol, vs control solution) was “do not significantly improve mitomycin C stability”. For the same compound, the “Arrhenius activation energy, Ea” value ([4]; 4-40° C.) was 16.5 kcal/mol, the “time for which potency will remain greater than 90% of initial” value ([4]; 4° C.) was “more than 30 months” and the t90 ([4]; 4 °C) was 38 months. The “10^2 ko (pseudo first-order rate constant)” value (from here on “10^2 ko”) ([4]; 4 °C (277 K), m: month) was 0.276 m^-1, the “t90 predicted from 40° C. data” value ([4]; 4 °C, m: month) was 39 m and the t90 ([4]; 25 °C) was 3.9 months. For the same compound, the “10^2 ko” value ([4]; 25 °C (298 K), m: month) was 2.69 m^-1, the t90 ([4]; 40 °C) was 37 days and the “10^2 ko” value ([4]; 40 °C (313 K), m: month) was 8.40 m^-1. For the same compound, the “E act (activation energy for decomposition)” value [5] was 19.4 kcal/mol, the “stable for” value ([6]; 0.9% sodium chloride injection) was 12 h and the “stable for” value ([6]; 5% dextrose injection) was 3 h. For the same compound, the “pH of maximum stability” value ([6]; aqueous solutions) was 7-8, the degradation product ([6]; pH above 7) was “hydrolyzed to 7-hydroxymitosane” and the degradation product ([6]; pH below 7) was “converted to 1-hydroxy-2,7-diaminomitosanes”. For the same compound, the “time to loss of 10% potency” value ([6]; in water at 25° C.) was “about 40 days”, the “stable for” value ([6]; sodium/lactate injection) was 24 h and the t50 ([7]; 5° C., predicted) was 7.6 y. For the same compound, the t90 ([7]; 5° C., predicted) was 420 days, the decomposition rate constant ([7]; 5° C., predicted from E act) was 1.04e-05 h⁻¹ and the “predicted t90” value ([7]; 5° C., unbuffered aqueous solution) was “about one”. The t50 ([7]; 25° C.) was 0.7 y, the t90 ([7]; 25° C.) was 40 days and the decomposition rate constant ([7]; 25° C., 0.05M phosphate buffer, pH 7.43) was 0.00011 h⁻¹. The “time until potency falls to 90% of its original value” ([7]; in water, 25° C.) was 40 days.
With `CC(O)CO` (stereo not drawn) [propylene glycol] the “Apparent pH after treatment” value ([8]; after sodium bicarbonate treatment) was 8.4 and the “Apparent pH before treatment” value ([8]; before sodium bicarbonate treatment) was 6.5.
